Measurements from ChEMBL document CHEMBL1201861, “Genomics of Drug Sensitity in Cancer screening data, Wellcome Trust Sanger Institute”.
Several values for one entry are separate records, joined by “and”; a condition that tells them apart may be missing. Identical values can stand only once. Where a SMILES comes first, the peptide text is derived from it. The star is where a group is joined. Cbz = O=C(OCc1ccccc1)*

Columns and labels:
Experiment in all cases: cells
KU812 cell line = type: functional, cell-based, Homo sapiens;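 further: growth inhibition of KU812 cells, read out with a cell viability assay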
Description: SANGER: Inhibition of human KU812 cell growth in a cell viability assay.

MZ2-MEL = type: functional, cell-based, Homo sapiens;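 further: growth inhibition of MZ2-MEL cells read out with a cell viability assay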
Description: SANGER: Inhibition of human MZ2-MEL cell growth in a cell viability assay.

COLO-320-HSR = type: functional, cell-based, Homo sapiens;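 further: growth inhibition of COLO-320-HSR cells, determined with a cell viability assay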
Description: SANGER: Inhibition of human COLO-320-HSR cell growth in a cell viability assay.

LS-411N = type: functional, cell-based, Homo sapiens
C8166 = type: functional, cell-based, Homo sapiens;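 further: growth inhibition of human C8166 cells measured by a cell viability assay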
Description: SANGER: Inhibition of human C8166 cell growth in a cell viability assay.

BT-474 = type: functional, cell-based, Homo sapiens
Description: SANGER: Inhibition of human BT-474 cell growth in a cell viability assay.

SNU-C2B = type: functional, cell-based; conditions: Homo sapiens;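 further: cell viability readout used to measure compound-driven suppression of SNU-C2B cell proliferation, IC50 marking half-maximal growth inhibition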
Description: SANGER: Inhibition of human SNU-C2B cell growth in a cell viability assay.

NB69 = type: functional, cell-based, Homo sapiens;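 further: growth inhibition of NB69 cells, determined by a cell viability assay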
Description: SANGER: Inhibition of human NB69 cell growth in a cell viability assay.

NCI-H1648 = type: functional, cell-based, Homo sapiens;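 further: cell viability assay measuring inhibition of NCI-H1648 cell growth, from the Sanger screening data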
Description: SANGER: Inhibition of human NCI-H1648 cell growth in a cell viability assay.

LB771-HNC = type: functional, cell-based; conditions: Homo sapiens;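 further: growth inhibition of LB771-HNC human cells, read out with a cell viability assay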
Description: SANGER: Inhibition of human LB771-HNC cell growth in a cell viability assay.

COLO-824 = type: functional, cell-based, Homo sapiens
Description: SANGER: Inhibition of human COLO-824 cell growth in a cell viability assay.

NCI-H1155 = type: functional, cell-based, Homo sapiens;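 further: cell growth inhibition measured by a viability assay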
Description: SANGER: Inhibition of human NCI-H1155 cell growth in a cell viability assay.

CTV-1 = type: functional, cell-based, Homo sapiens;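 further: growth inhibition of the cell line, read out with a cell viability assay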
Description: SANGER: Inhibition of human CTV-1 cell growth in a cell viability assay.

KM-H2 = type: functional, cell-based, Homo sapiens;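 further: growth inhibition of KM-H2 cells, read out by a cell viability assay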
Description: SANGER: Inhibition of human KM-H2 cell growth in a cell viability assay.

SW684 = type: functional, cell-based, Homo sapiens; conditions: read-out: IC50;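 further: growth inhibition of human SW684 cells, measured by a cell viability assay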
Description: SANGER: Inhibition of human SW684 cell growth in a cell viability assay.

L-428 = type: functional, cell-based, Homo sapiens
Description: SANGER: Inhibition of human L-428 cell growth in a cell viability assay.

SW 954 = type: functional, cell-based, Homo sapiens;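 further: growth inhibition of SW954 human cancer cells, read out as cell viability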
Description: SANGER: Inhibition of human SW954 cell growth in a cell viability assay.

DB = type: functional, cell-based, Homo sapiens
Description: SANGER: Inhibition of human DB cell growth in a cell viability assay.

NCI-H1304 = type: functional, cell-based, Homo sapiens;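 further: growth inhibition of the cancer cell line, measured in a cell viability assay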
Description: SANGER: Inhibition of human NCI-H1304 cell growth in a cell viability assay.

JVM-3 = type: functional, cell-based, Homo sapiens;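 further: growth inhibition of human JVM-3 cells, read out with a cell viability assay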
Description: SANGER: Inhibition of human JVM-3 cell growth in a cell viability assay.

NCI-N87 = type: functional, cell-based; conditions: Homo sapiens;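 further: growth inhibition of human NCI-N87 cells, read out with a cell viability assay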
Description: SANGER: Inhibition of human NCI-N87 cell growth in a cell viability assay.

COR-L88 = type: functional, cell-based, Homo sapiens;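 further: growth inhibition of COR-L88 cells, read out with a cell viability assay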
Description: SANGER: Inhibition of human COR-L88 cell growth in a cell viability assay.

SK-MEL-2 = type: functional, cell-based, Homo sapiens;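 further: growth inhibition of human SK-MEL-2 cells measured with a cell viability assay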
Description: SANGER: Inhibition of human SK-MEL-2 cell growth in a cell viability assay.

OMC-1 = type: functional, cell-based, Homo sapiens;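 further: growth inhibition of the OMC-1 cell line, measured by a cell viability assay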
Description: SANGER: Inhibition of human OMC-1 cell growth in a cell viability assay.

LB2241-RCC = type: functional, cell-based, Homo sapiens;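 further: cell viability assay measuring how strongly the cultured human renal carcinoma line is prevented from growing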
Description: SANGER: Inhibition of human LB2241-RCC cell growth in a cell viability assay.

NCI-H1299 = type: functional, cell-based; conditions: Homo sapiens;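 further: growth inhibition of human NCI-H1299 cells, read out by a cell viability assay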
Description: SANGER: Inhibition of human NCI-H1299 cell growth in a cell viability assay.

TE-6 = type: functional, cell-based, Homo sapiens;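 further: growth inhibition of TE-6 cells, read out with a cell viability assay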
Description: SANGER: Inhibition of human TE-6 cell growth in a cell viability assay.

SCH = type: functional, cell-based, Homo sapiens;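 further: growth inhibition of human SCH cells, read out in a cell viability assay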
Description: SANGER: Inhibition of human SCH cell growth in a cell viability assay.

NOMO-1 = type: functional, cell-based, Homo sapiens;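 further: growth inhibition of human NOMO-1 cells measured by a cell viability assay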
Description: SANGER: Inhibition of human NOMO-1 cell growth in a cell viability assay.

RS4-11 = type: functional, cell-based, Homo sapiens;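 further: growth inhibition of RS4-11 cells, read out by a cell viability assay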
Description: SANGER: Inhibition of human RS4-11 cell growth in a cell viability assay.

TE-11 = type: functional, cell-based; conditions: Homo sapiens;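 further: growth inhibition of human TE-11 cells, read out by a cell viability assay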
Description: SANGER: Inhibition of human TE-11 cell growth in a cell viability assay.

Becker = type: functional, cell-based, Homo sapiens;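 further: growth inhibition of Becker cells, read out with a cell viability assay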
Description: SANGER: Inhibition of human Becker cell growth in a cell viability assay.

EOL1 = type: functional, cell-based, Homo sapiens;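 further: growth inhibition of EoL-1 cells, read out by a cell viability assay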
Description: SANGER: Inhibition of human EoL-1-cell cell growth in a cell viability assay.

Calu-6 = type: functional, cell-based, Homo sapiens;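 further: growth of human Calu-6 cells, read out by a cell viability assay, IC50 marking inhibition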
Description: SANGER: Inhibition of human Calu-6 cell growth in a cell viability assay.

NKM-1 = type: functional, cell-based, Homo sapiens;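 further: growth inhibition of NKM-1 cells, read out with a cell viability assay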
Description: SANGER: Inhibition of human NKM-1 cell growth in a cell viability assay.

COLO-668 = type: functional, cell-based, Homo sapiens
Description: SANGER: Inhibition of human COLO-668 cell growth in a cell viability assay.

NCI-H2126 = type: functional, cell-based, Homo sapiens;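 further: growth inhibition of the cancer cell line, determined with a cell viability readout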
Description: SANGER: Inhibition of human NCI-H2126 cell growth in a cell viability assay.

RH-1 = type: functional, cell-based, Homo sapiens;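 further: growth inhibition of human RH-1 cells, read out with a cell viability assay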
Description: SANGER: Inhibition of human RH-1 cell growth in a cell viability assay.

NB13 = type: functional, cell-based, Homo sapiens;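 further: cell viability readout measuring growth inhibition of human NB13 cells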
Description: SANGER: Inhibition of human NB13 cell growth in a cell viability assay.

MN-60 = type: functional, cell-based, Homo sapiens;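 further: growth inhibition of the MN-60 cell line, determined with a cell viability assay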
Description: SANGER: Inhibition of human MN-60 cell growth in a cell viability assay.

TE-1 = type: functional, cell-based, Homo sapiens
Description: SANGER: Inhibition of human TE-1 cell growth in a cell viability assay.

SNU-5 = type: functional, cell-based, Homo sapiens;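 further: cell viability readout used to measure growth inhibition in human NCI-SNU-5 cells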
Description: SANGER: Inhibition of human NCI-SNU-5 cell growth in a cell viability assay.

NB6 = type: functional, cell-based, Homo sapiens
Description: SANGER: Inhibition of human NB6 cell growth in a cell viability assay.

HCC2218 = type: functional, cell-based, Homo sapiens;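 further: cell viability assay read-out, with IC50 given as the concentration that inhibits growth of the cell line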
Description: SANGER: Inhibition of human HCC2218 cell growth in a cell viability assay.

MOLT-16 = type: functional, cell-based, Homo sapiens;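 further: growth inhibition of human MOLT-16 cells, read out with a cell viability assay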
Description: SANGER: Inhibition of human MOLT-16 cell growth in a cell viability assay.

ALL-PO = type: functional, cell-based, Homo sapiens;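 further: growth inhibition of ALL-PO cells, read out by a cell viability assay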
Description: SANGER: Inhibition of human ALL-PO cell growth in a cell viability assay.

ES5 = type: functional, cell-based, Homo sapiens;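 further: growth inhibition of human ES5 cells, read out by a cell viability assay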
Description: SANGER: Inhibition of human ES5 cell growth in a cell viability assay.

ES3 = type: functional, cell-based, Homo sapiens;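 further: growth inhibition of ES3 cells, read out with a cell viability assay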
Description: SANGER: Inhibition of human ES3 cell growth in a cell viability assay.

K562 = type: functional, cell-based, Homo sapiens
Description: SANGER: Inhibition of human K-562 cell growth in a cell viability assay.

MS-1 = type: functional, cell-based, Homo sapiens;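 further: growth inhibition of MS-1 cells, read out by cell viability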
Description: SANGER: Inhibition of human MS-1 cell growth in a cell viability assay.

Measured: IC50

Cc1ccc(C(=O)Nc2ccc(CN3CCN(C)CC3)c(C(F)(F)F)c2)cc1C#Cc1cnc2cccnn12 [PONATINIB]
> 512 nM: MZ2-MEL; Homo sapiens, MZ2-MEL | COLO-320-HSR; Homo sapiens, COLO-320-HSR | LS-411N; Homo sapiens, LS-411N | C8166; Homo sapiens, C8166 | BT-474; Homo sapiens, BT-474 | SNU-C2B | NB69; Homo sapiens, NB69 | NCI-H1648; Homo sapiens, NCI-H1648 | LB771-HNC | COLO-824; Homo sapiens, COLO-824 | NCI-H1155; Homo sapiens, NCI-H1155 | KM-H2; Homo sapiens, KM-H2 | SW684; Homo sapiens, SW684 | L-428; Homo sapiens, L-428 | SW 954; Homo sapiens, SW 954 | DB; Homo sapiens, DB | NCI-H1304; Homo sapiens, NCI-H1304 | JVM-3; Homo sapiens, JVM-3 | NCI-N87 | COR-L88; Homo sapiens, COR-L88 | SK-MEL-2; Homo sapiens, SK-MEL-2 | OMC-1; Homo sapiens, OMC-1 | LB2241-RCC; Homo sapiens, LB2241-RCC | NCI-H1299 | TE-6; Homo sapiens, TE-6 | SCH; Homo sapiens, SCH | NOMO-1; Homo sapiens, NOMO-1 | RS4-11; Homo sapiens, RS4-11 | TE-11 | Becker; Homo sapiens, Becker | Calu-6; Homo sapiens, Calu-6 | COLO-668; Homo sapiens, COLO-668 | NCI-H2126; Homo sapiens, NCI-H2126 | RH-1; Homo sapiens, RH-1 | NB13; Homo sapiens, NB13 | MN-60; Homo sapiens, MN-60 | TE-1; Homo sapiens, TE-1 | SNU-5; Homo sapiens, SNU-5 | NB6; Homo sapiens, NB6 | HCC2218; Homo sapiens, HCC2218 | MOLT-16; Homo sapiens, MOLT-16 | ES5; Homo sapiens, ES5 | ES3; Homo sapiens, ES3 | K562; Homo sapiens, K562 | MS-1; Homo sapiens, MS-1
< 2 nM: EOL1; Homo sapiens, EOL1
124 nM: ALL-PO; Homo sapiens, ALL-PO
6.55 nM: NKM-1; Homo sapiens, NKM-1
5.21 nM: CTV-1; Homo sapiens, CTV-1
28.5 nM: KU812 cell line; Homo sapiens, KU812

CC(C)C[C@@H](C=O)NC(=O)[C@H](CC(C)C)NC(=O)[C@H](CC(C)C)NC(=O)OCc1ccccc1 [MG-132] (Cbz-Leu-Leu-Leu-aldehyde)
627 nM and > 1000 nM: NCI-H2126; nci-h2126
142 nM and 871 nM: LB2241-RCC; lb2241-rcc
707 nM: SNU-C2B
> 1000 nM: KU812 cell line; Homo sapiens, KU812 | KU812 cell line; ku812 | COLO-320-HSR; colo-320-hsr | LS-411N; ls-411n | C8166; c8166 | BT-474; bt-474 | NB69; nb69 | NCI-H1648; Homo sapiens, NCI-H1648 | NCI-H1648; nci-h1648 | COLO-824; colo-824 | NCI-H1155; nci-h1155 | CTV-1; ctv-1 | KM-H2; Homo sapiens, KM-H2 | KM-H2; km-h2 | SW684; sw684 | L-428; Homo sapiens, L-428 | L-428; l-428 | SW 954; Homo sapiens, SW 954 | SW 954; sw 954 | DB; db | NCI-H1304; Homo sapiens, NCI-H1304 | NCI-H1304; nci-h1304 | JVM-3; jvm-3 | NCI-N87 | COR-L88; cor-l88 | SK-MEL-2; sk-mel-2 | OMC-1; omc-1 | NCI-H1299 | TE-6; te-6 | SCH; sch | NOMO-1; Homo sapiens, NOMO-1 | NOMO-1; nomo-1 | TE-11 | EOL1; Homo sapiens, EOL1 | EOL1; eol1 | Calu-6; Homo sapiens, Calu-6 | Calu-6; calu-6 | NKM-1; nkm-1 | COLO-668; Homo sapiens, COLO-668 | COLO-668; colo-668 | RH-1; rh-1 | NB13; nb13 | MN-60; Homo sapiens, MN-60 | MN-60; mn-60 | NB6; nb6 | HCC2218; Homo sapiens, HCC2218 | HCC2218; hcc2218 | ALL-PO; all-po | ES5; es5 | ES3; es3 | K562; k562 | MS-1; Homo sapiens, MS-1 | MS-1; ms-1
295 nM and > 1000 nM: MOLT-16; molt-16
796 nM and > 1000 nM: Becker; becker
451 nM and > 1000 nM: TE-1; te-1
> 1000 nM and 956 nM: RS4-11; rs4-11
695 nM and > 1000 nM: SNU-5; snu-5
176 nM and > 1000 nM: MZ2-MEL; mz2-mel
